In PubChem BioAssay (NCI) one finds TGI data, which are given here for 20 molecules.

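Protocol summary: plate cells (96-well), add compound at 5 concentrations, incubate 48 h, interpolate endpoints linearly. TGI is the concentration that stops growth completely.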 A value given as a limit tells only on which side of the number the result lay.

One may read the TGI as the concentration at which net growth stops.

Some test systems named below: RPMI-8226 leukemia; T-47D breast; HCT-15 colon; K-562 leukemia; A549 NSCLC; NCI-H226 lung; TK-10 renal; SN12C renal; SK-MEL-2 melanoma; MOLT-4 leukemia; SK-MEL-28 melanoma.
Assay in all cases: DTP human tumour cell line panel, 48 h

Take `CCOC(=O)c1c(SCCN2CCCC2)n(-c2ccccc2)c(=S)n(-c2ccccc2)c1=O`: the TGI is 5.87 µM with RPMI-8226 leukemia; 9.41 µM in the assay with T-47D breast; 5.54 µM in the assay on HCT-15 colon; 5.63 µM in the assay on K-562 leukemia; 14.6 µM in the assay with A549 NSCLC; 33.9 µM in the assay on NCI-H226 lung. For the same molecule, the TGI in the assay on TK-10 renal was determined as 3.06 µM; with SN12C renal, 3.18 µM; in the assay with SK-MEL-2 melanoma it was 28.4 µM; with MOLT-4 leukemia it was 5.11 µM; in the assay with SK-MEL-28 melanoma, 7.48 µM.

Turning to `CCOC(=O)C1CC(O)C(=O)N1C` (stereo unspecified), the TGI with RPMI-8226 leukemia, in the assay on T-47D breast, in the assay on HCT-15 colon, in the assay with A549 NSCLC, in the assay with NCI-H226 lung and in the assay on TK-10 renal was > 100 µM each time. In addition, the TGI in the assay on SN12C renal, in the assay with SK-MEL-2 melanoma, in the assay on MOLT-4 leukemia and in the assay on SK-MEL-28 melanoma was > 100 µM throughout.

For the molecule `N#Cc1c2c(c(Nc3ccc(F)cc3)n3c1nc1ccccc13)CCC2`, the TGI is > 21.3 µM in the assay with RPMI-8226 leukemia; 24 µM in the assay with T-47D breast; 13.1 µM with HCT-15 colon; > 100 µM with K-562 leukemia; 22.5 µM with A549 NSCLC; 22.7 µM with NCI-H226 lung. Further, the TGI is 6.51 µM with TK-10 renal; 4.59 µM in the assay on SN12C renal; 40.6 µM in the assay on SK-MEL-2 melanoma; > 100 µM in the assay on MOLT-4 leukemia; 23.7 µM with SK-MEL-28 melanoma.

With `CC1CC(C#N)=C2NCCCCN2C1=O` (stereo unspecified), the TGI with RPMI-8226 leukemia, with T-47D breast, in the assay with HCT-15 colon, in the assay on K-562 leukemia, in the assay on A549 NSCLC and in the assay on NCI-H226 lung was > 100 µM each time. Besides, the TGI with TK-10 renal, in the assay on SN12C renal, in the assay on SK-MEL-2 melanoma, with MOLT-4 leukemia and in the assay on SK-MEL-28 melanoma was > 100 µM throughout.

For `CC1=CC(=O)N(n2c(C)n[nH]c2=O)C1=O`, the TGI in the assay with RPMI-8226 leukemia, in the assay on T-47D breast, in the assay on HCT-15 colon, in the assay on K-562 leukemia, with A549 NSCLC and in the assay with NCI-H226 lung was > 100 µM in each case. Also, the TGI with TK-10 renal, in the assay with SN12C renal, with SK-MEL-2 melanoma and in the assay on MOLT-4 leukemia was > 100 µM each time.

`COc1ccc2c(c1)C(=O)c1ccccc1C2`: the total growth inhibition concentration (TGI) in the assay on RPMI-8226 leukemia is > 100 µM; with T-47D breast, 67.8 µM; in the assay with HCT-15 colon, > 100 µM; in the assay on K-562 leukemia, > 100 µM; with A549 NSCLC it was > 100 µM; with NCI-H226 lung, > 100 µM. Further, the TGI in the assay with TK-10 renal, in the assay with SN12C renal, in the assay with SK-MEL-2 melanoma, in the assay on MOLT-4 leukemia and with SK-MEL-28 melanoma was > 100 µM each time.

In the case of `C(=Nc1ccc(-c2nc3ccccc3s2)cc1)c1ccco1`, the TGI with RPMI-8226 leukemia, with T-47D breast, in the assay on HCT-15 colon, in the assay with K-562 leukemia, with A549 NSCLC and with NCI-H226 lung was > 100 µM in each case. Further, the TGI in the assay on TK-10 renal is 8.51 µM; with SN12C renal, > 100 µM; in the assay with SK-MEL-2 melanoma, > 100 µM; with MOLT-4 leukemia it was > 100 µM; with SK-MEL-28 melanoma, > 100 µM.

For `CN(O)C(=O)Cc1ccc(OCc2cccc(Cl)c2)cc1`, the TGI with RPMI-8226 leukemia, in the assay with T-47D breast, in the assay on HCT-15 colon, with K-562 leukemia, with A549 NSCLC and in the assay on NCI-H226 lung was > 100 µM each time. Moreover, the total growth inhibition concentration (TGI) in the assay with TK-10 renal, in the assay with SN12C renal, with SK-MEL-2 melanoma, in the assay on MOLT-4 leukemia and with SK-MEL-28 melanoma was > 100 µM throughout.

As for `CCN(CC)CCCn1c(=O)c2cccnc2n2c3c(=O)n(C)c(=O)n(C)c3nc12`, the TGI in the assay on RPMI-8226 leukemia, in the assay on T-47D breast, in the assay on HCT-15 colon, in the assay on K-562 leukemia, with A549 NSCLC and in the assay with NCI-H226 lung was > 100 µM in each case. The TGI with TK-10 renal, in the assay on SN12C renal, in the assay on SK-MEL-2 melanoma, with MOLT-4 leukemia and with SK-MEL-28 melanoma was > 100 µM in each case.

`O=C1/C(=C/c2ccc(Br)s2)NC(=S)N1CN1CCOCC1`: the TGI in the assay with RPMI-8226 leukemia is 43 µM; in the assay on T-47D breast, > 100 µM; with HCT-15 colon, > 100 µM; with K-562 leukemia, 99.2 µM; in the assay on NCI-H226 lung, > 100 µM; with TK-10 renal, > 100 µM. Besides, the concentration for total growth inhibition (TGI) in the assay on SN12C renal, in the assay on SK-MEL-2 melanoma, in the assay with MOLT-4 leukemia and in the assay with SK-MEL-28 melanoma was > 100 µM throughout.

As to `c1ccc2c(c1)CCCN1CCc3ccccc3C21` (stereo unspecified), the TGI with RPMI-8226 leukemia, in the assay with T-47D breast, with HCT-15 colon, with K-562 leukemia, with A549 NSCLC and with NCI-H226 lung was > 100 µM throughout. Moreover, the TGI in the assay on TK-10 renal, with SN12C renal, in the assay on SK-MEL-2 melanoma, in the assay with MOLT-4 leukemia and in the assay on SK-MEL-28 melanoma was > 100 µM each time.

Consider `NCCCC(N)C(=O)O` (stereo unspecified), for which the TGI in the assay with RPMI-8226 leukemia, in the assay on T-47D breast, with HCT-15 colon, in the assay with K-562 leukemia, with A549 NSCLC and with NCI-H226 lung was > 100 µM in each case. In addition, the TGI in the assay on TK-10 renal, in the assay with SN12C renal, in the assay on SK-MEL-2 melanoma, with MOLT-4 leukemia and with SK-MEL-28 melanoma was > 100 µM in each case.

On to `CCOC(=O)C1C(=O)CC(O)(c2ccccc2)C(C(=O)OCC)C1c1ccc(OC)cc1` (stereo unspecified), for which the TGI in the assay on RPMI-8226 leukemia is 40.6 µM; in the assay with T-47D breast, > 100 µM; in the assay with HCT-15 colon, > 100 µM; in the assay on K-562 leukemia, > 83.4 µM; in the assay with A549 NSCLC, > 100 µM; in the assay on NCI-H226 lung it was > 100 µM. The TGI with TK-10 renal is > 100 µM; in the assay with SN12C renal, > 100 µM; in the assay with SK-MEL-2 melanoma, 77.6 µM; in the assay on MOLT-4 leukemia, > 82 µM; with SK-MEL-28 melanoma, > 100 µM.

As for `N#CC(C#N)=C1CCCS(=O)(=O)c2ccccc21`, the TGI in the assay on RPMI-8226 leukemia, in the assay with T-47D breast, in the assay with HCT-15 colon, in the assay on K-562 leukemia, in the assay with A549 NSCLC and in the assay with NCI-H226 lung was > 100 µM in each case. Moreover, the TGI with TK-10 renal, with SN12C renal, in the assay with SK-MEL-2 melanoma, in the assay on MOLT-4 leukemia and in the assay on SK-MEL-28 melanoma was > 100 µM each time.

In the case of `CSc1c(C(=O)Nc2ccc(C)cc2)c(N)[nH]c(=O)c1C#N`, the TGI in the assay with RPMI-8226 leukemia, in the assay with T-47D breast, in the assay on HCT-15 colon, in the assay with K-562 leukemia, in the assay with A549 NSCLC and in the assay with NCI-H226 lung was > 100 µM throughout. Further, the TGI in the assay on TK-10 renal, with SN12C renal, in the assay on SK-MEL-2 melanoma, in the assay on MOLT-4 leukemia and with SK-MEL-28 melanoma was > 100 µM each time.

For `O=c1nc2c(c(-c3cccc(Cl)c3)[nH]1)COC/C2=C\c1cccc(Cl)c1`, the TGI with RPMI-8226 leukemia, with T-47D breast, in the assay with HCT-15 colon, with K-562 leukemia, in the assay with NCI-H226 lung and in the assay with TK-10 renal was > 100 µM each time. In addition, the TGI with SN12C renal, in the assay with SK-MEL-2 melanoma and in the assay with MOLT-4 leukemia was > 100 µM throughout.

Regarding `CC1=C2c3ccccc3N(C(=O)/C=C/C(=O)O)[C@H]2[C@H]2C(=O)OC(=O)[C@H]2C1`, the TGI in the assay on RPMI-8226 leukemia, in the assay with T-47D breast, in the assay with HCT-15 colon, in the assay on A549 NSCLC, with NCI-H226 lung and in the assay on TK-10 renal was > 10 µM each time. Further, the TGI in the assay with SN12C renal, in the assay with SK-MEL-2 melanoma, in the assay with MOLT-4 leukemia and in the assay with SK-MEL-28 melanoma was > 10 µM in each case.

As to `N#Cc1c(OCCF)c2ccccc2n2c1nc1ccccc12`, the TGI with RPMI-8226 leukemia, in the assay on T-47D breast, in the assay with HCT-15 colon, in the assay with K-562 leukemia, in the assay on A549 NSCLC and in the assay with NCI-H226 lung was > 100 µM each time. Further, the TGI with TK-10 renal, in the assay with SK-MEL-2 melanoma, in the assay with MOLT-4 leukemia and in the assay with SK-MEL-28 melanoma was > 100 µM throughout.

Take `Cc1cccc(N(CCC#N)S(=O)(=O)c2ccccc2)c1`: the total growth inhibition concentration (TGI) in the assay on RPMI-8226 leukemia, in the assay on T-47D breast, in the assay on K-562 leukemia, in the assay on A549 NSCLC, in the assay on NCI-H226 lung and in the assay on TK-10 renal was > 100 µM each time. Besides, the TGI in the assay with SN12C renal, in the assay with SK-MEL-2 melanoma, in the assay on MOLT-4 leukemia and in the assay with SK-MEL-28 melanoma was > 100 µM in each case.

As to `CC(C)/C(Cl)=N\OC(=O)NNc1ccccc1`, the TGI in the assay with RPMI-8226 leukemia was 1.34 µM; with T-47D breast, 40.1 µM; with HCT-15 colon, > 53.7 µM; in the assay on A549 NSCLC, > 100 µM; in the assay with NCI-H226 lung it was 99.7 µM; with TK-10 renal, > 100 µM. In addition, the TGI in the assay with SN12C renal is > 74.7 µM; in the assay with SK-MEL-2 melanoma, > 100 µM; with MOLT-4 leukemia, 17.7 µM; in the assay on SK-MEL-28 melanoma, > 100 µM.
